Drawing on patent US9439425B2, “Plant disease control composition and plant disease control method” (Sumitomo Chemical Company, Limited, priority 2012, dated 2016), this text covers Control value for six compounds.

The first experiment concerns powdery mildew. Kind of experiment: Test Example 1: foliar spray on potted wheat, powdery mildew inoculation, control value from onset area rate. In kind it is in vivo, Wheat (Shirogane). The note with it: treatment concentration 0.1 ppm, single agent; foliage spray on wheat, powdery mildew inoculated, 7 days at 21° C. As to the method:
A plastic pot was stuffed with a sand soil. Wheat (Shirogane) was sown thereon, allowed to grow in a greenhouse at 24° C. for 7 days, transferred to a greenhouse at 15° C., and then allowed to grow for 14 days. A water-diluted solution of the present compound (I) and a water-diluted solution of pyriofenone, metrafenone, cyflufenamid, quinoxyfen or proquinazid were mixed to prepare an agent solution containing prescribed amounts of the present compound (I) and, pyriofenone, metrafenone, cyflufenamid, quinoxyfen or proquinazid. The agent solution was sprayed to the foliage of the wheat, then the plant was air-dried, and then a powdery mildew was inoculated. After the inoculation, the plant was allowed to stand at 21° C. for 7 days and then an onset area rate was examined visually and a control value was calculated using the following formula. Moreover, the present compound (I), pyriofenone, metrafenone, cyflufenamid, quinoxyfen or proquinazid was diluted with water to prepare water-diluted solutions with a prescribed concentration, the same test was carried out for each of the solutions and control values were calculated. Control value (%)=100×(A−B)/A A: an onset area rate of the non-treated group B: an onset area rate of the treated group Results are shown in Table 1.
Regarding `C=CCSC(=O)n1c(N)c(-c2ccccc2C)c(=O)n1C(C)C` [Present compound (I)], the Control value was 3%.

Staying with this experiment, now noted: treatment concentration 0.15 ppm, single agent; foliage spray on wheat, powdery mildew inoculated, 7 days at 21° C.
`CCCOc1nc2ccc(I)cc2c(=O)n1CCC` [Proquinazid] returned a Control value of 74%.

Take `Fc1ccc(Oc2ccnc3cc(Cl)cc(Cl)c23)cc1` [Quinoxyfen]: the Control value is 71%.

Consider `COc1cc(C)c(C(=O)c2c(OC)ncc(Cl)c2C)c(OC)c1OC` [Pyriofenone], for which the Control value is recorded as 69%.

`O=C(Cc1ccccc1)N/C(=N\OCC1CC1)c1c(C(F)(F)F)ccc(F)c1F` [Cyflufenamid] showed a Control value of 52%.

`COc1cc(C)c(C(=O)c2c(OC)ccc(Br)c2C)c(OC)c1OC` [Metrafenone] displayed a Control value of 71%.
